Data from BindingDB's records for doi:10.1016/S0960-894X(97)00031-0 (1997).
pKi: −log10 of the molar value.

Target: Human immunodeficiency virus type 1 protease (Human immunodeficiency virus 1, UniProt Q72874)
Assay: ChEBML_157558
Text: Inhibition of HIV-1 protease.

| Structure (SMILES) | pKi |
| --- | --- |
| O=c1oc2c(c(O)c1C(c1cccc(CS(=O)(=O)c3ccccn3)c1)C1CC1)CCCCCC2 (configuration not stated) [3-{Cyclopropyl-[3-(pyridine-2-sulfonylmethyl)-phenyl]-methyl}-4-hydroxy-5,6,7,8,9,10-hexahydro-cycloocta[b]pyran-2-one] | 8.72 |
| N#Cc1ccc(S(=O)(=O)Cc2cccc(C(c3c(O)c4c(oc3=O)CCCCCC4)C3CC3)c2)cc1 (configuration not stated) [4-{3-[Cyclopropyl-(4-hydroxy-2-oxo-5,6,7,8,9,10-hexahydro-2H-cycloocta[b]pyran-3-yl)-methyl]-phenylmethanesulfonyl}-benzonitrile] | 8.72 |
